Test results taken from patent publication US9980943B2, “Methods of treating muscular dystrophy” (BOARD OF REGENTS OF THE NEVADA SYSTEM OF HIGHER EDUCATION, …, priority 2013, dated 2018).

Legend:
Assay type in all cases: cell-based, mouse
[1] = system: α7 integrin (LacZ reporter in α7βgal+/− myoblasts); experiment: Myoblast α7+/LacZ integrin FDG assay (Burkin assay in myoblasts, 96-well); conditions: α7+/LacZ myoblasts, 96-well
[2] = system: α7 integrin (LacZ reporter in α7+/LacZ myotubes); experiment: Myotube α7 integrin FDG assay (Burkin assay in myotubes, 96-well); conditions: myotubes
[3] = system: β-galactosidase in CMV-LacZ C2C12 myotubes; experiment: CMV-LacZ secondary screen in C2C12 myotubes (β-Gal stabilizing assay); conditions: for CMV-LACZ in Myotubes (β-galactosidase activity relative to DMSO): CMV-LacZ C2C12 myotubes, 96-well format; for CMV-LACZ in Myotubes, signal relative to DMSO: C2C12 CMV-LacZ myotubes, fold relative to DMSO
Method in brief: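 CMV-LacZ C2C12 line (clonal, FDG-screened); myoblasts/myotubes dosed 0.5–40 μM (0.5, 1, 5, 10, 20, 40 μM); n=2 per point; β-gal stabilization read-out.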

SMILES	Burkin Assay in Myoblasts, value relative to DMSO ([1]; 0.5 uM)	Burkin Assay in Myoblasts, value relative to DMSO ([1]; 1 uM)	Burkin Assay in Myoblasts, value relative to DMSO ([1]; 5 uM)	Burkin Assay in Myoblasts, value relative to DMSO ([1]; 10 uM)	Burkin Assay in Myoblasts, value relative to DMSO ([1]; 20 uM)	Burkin Assay in Myoblasts, value relative to DMSO ([1]; 40 uM)	Burkin Assay in Myotubes (signal relative to DMSO) ([2]; 0.5 uM)	Burkin Assay in Myotubes (signal relative to DMSO) ([2]; 1 uM)	Burkin Assay in Myotubes (signal relative to DMSO) ([2]; 5 uM)	Burkin Assay in Myotubes (signal relative to DMSO) ([2]; 10 uM)	Burkin Assay in Myotubes (signal relative to DMSO) ([2]; 20 uM)	Burkin Assay in Myotubes (signal relative to DMSO) ([2]; 40 uM)	Burkin Assay in Myoblasts, signal relative to DMSO ([1]; 0.5 uM)	Burkin Assay in Myoblasts, signal relative to DMSO ([1]; 1 uM)	Burkin Assay in Myoblasts, signal relative to DMSO ([1]; 5 uM)	Burkin Assay in Myoblasts, signal relative to DMSO ([1]; 10 uM)	CMV-LACZ in Myotubes, signal relative to DMSO ([3]; 5 uM)	CMV-LACZ in Myotubes, signal relative to DMSO ([3]; 10 uM)	CMV-LACZ in Myotubes, signal relative to DMSO ([3]; 20 uM)	CMV-LACZ in Myotubes, signal relative to DMSO ([3]; 40 uM)	further results
COc1ccc(C(=O)O/N=C(\N)c2cccc(C)c2)cc1OC [MLS001165323-01]	0.9704	0.9491	0.8821	0.924	0.8743	0.4779	0.9468	0.9627	1.166	1.153	1.054	1.088	–	–	–	–	–	–	–	–	CMV-LACZ in Myotubes (β-galactosidase activity relative to DMSO) ([3]; 5 uM): 1.072; CMV-LACZ in Myotubes (β-galactosidase activity relative to DMSO) ([3]; 10 uM): 0.9; CMV-LACZ in Myotubes (β-galactosidase activity relative to DMSO) ([3]; 20 uM): 1.315; CMV-LACZ in Myotubes (β-galactosidase activity relative to DMSO) ([3]; 40 uM): 1.488
O=[N+]([O-])c1ccc(N2CCN(c3ccccc3F)CC2)nc1 [MLS001165749-01]	–	–	–	–	–	–	–	–	–	–	–	–	1.048	1.057	1.034	0.9342	0.8271	0.9284	1.024	1.038	Burkin Assay in Myoblasts, signal relative to DMSO ([1]; 20 uM): 0.9628; Burkin Assay in Myoblasts, signal relative to DMSO ([1]; 40 uM): 0.7711; Burkin Assay in Myotubes, α7 integrin LacZ reporter signal relative to DMSO ([2]; 0.5 uM): 0.9532; Burkin Assay in Myotubes, α7 integrin LacZ reporter signal relative to DMSO ([2]; 1 uM): 1.078; Burkin Assay in Myotubes, α7 integrin LacZ reporter signal relative to DMSO ([2]; 5 uM): 1.1624; Burkin Assay in Myotubes, α7 integrin LacZ reporter signal relative to DMSO ([2]; 10 uM): 1.122; Burkin Assay in Myotubes, α7 integrin LacZ reporter signal relative to DMSO ([2]; 20 uM): 0.7808; Burkin Assay in Myotubes, α7 integrin LacZ reporter signal relative to DMSO ([2]; 40 uM): 0.7342
Cc1ccc(-c2onc3ccc(C(=O)/C=C/N(C)C)cc23)cc1 [MLS001166156-01]	0.8005	0.9085	0.7543	0.7601	0.7571	0.3481	1.001	0.8521	1.07	0.7592	0.8218	0.4461	–	–	–	–	–	–	–	–	CMV-LACZ in Myotubes (β-galactosidase activity relative to DMSO) ([3]; 5 uM): 0.8707; CMV-LACZ in Myotubes (β-galactosidase activity relative to DMSO) ([3]; 10 uM): 0.9198; CMV-LACZ in Myotubes (β-galactosidase activity relative to DMSO) ([3]; 20 uM): 0.7796; CMV-LACZ in Myotubes (β-galactosidase activity relative to DMSO) ([3]; 40 uM): 0.5227
O=C(O)c1cc(-c2ccccc2Cl)n(-c2cccc(Cl)c2)n1 [MLS001166325-01]	1.017	0.9268	0.9487	0.9453	0.9772	1.032	1.057	1.049	1.112	1.065	0.9593	1.0054	–	–	–	–	0.7726	0.9795	0.8969	0.8785	–
COc1ccc(Cl)cc1NC(=O)CC(=O)Nc1cc(Cl)ccc1OC [MLS001166704-01]	–	–	–	–	–	–	–	–	–	–	–	–	1.109	1.165	0.8499	0.7652	1.088	1.1553	1.4595	1.0685	Burkin Assay in Myoblasts, signal relative to DMSO ([1]; 20 uM): 0.5747; Burkin Assay in Myoblasts, signal relative to DMSO ([1]; 40 uM): 0.4394; Burkin Assay in Myotubes, α7 integrin LacZ reporter signal relative to DMSO ([2]; 0.5 uM): 1.166; Burkin Assay in Myotubes, α7 integrin LacZ reporter signal relative to DMSO ([2]; 1 uM): 1.268; Burkin Assay in Myotubes, α7 integrin LacZ reporter signal relative to DMSO ([2]; 5 uM): 0.8936; Burkin Assay in Myotubes, α7 integrin LacZ reporter signal relative to DMSO ([2]; 10 uM): 1.065; Burkin Assay in Myotubes, α7 integrin LacZ reporter signal relative to DMSO ([2]; 20 uM): 0.7918; Burkin Assay in Myotubes, α7 integrin LacZ reporter signal relative to DMSO ([2]; 40 uM): 0.81
COC(=O)c1ccccc1NC(=O)c1cc[n+]([O-])cc1 [MLS001167169-01]	–	–	–	–	–	–	–	–	–	–	–	–	1.032	0.8858	0.9547	0.9378	0.9323	1.009	1.085	1.103	Burkin Assay in Myoblasts, signal relative to DMSO ([1]; 20 uM): 0.8133; Burkin Assay in Myoblasts, signal relative to DMSO ([1]; 40 uM): 0.9062; Burkin Assay in Myotubes, α7 integrin LacZ reporter signal relative to DMSO ([2]; 0.5 uM): 0.8925; Burkin Assay in Myotubes, α7 integrin LacZ reporter signal relative to DMSO ([2]; 1 uM): 0.9375; Burkin Assay in Myotubes, α7 integrin LacZ reporter signal relative to DMSO ([2]; 5 uM): 1.041; Burkin Assay in Myotubes, α7 integrin LacZ reporter signal relative to DMSO ([2]; 10 uM): 0.9696; Burkin Assay in Myotubes, α7 integrin LacZ reporter signal relative to DMSO ([2]; 20 uM): 1.3902; Burkin Assay in Myotubes, α7 integrin LacZ reporter signal relative to DMSO ([2]; 40 uM): 0.6262
CCOc1ccc2ccccc2c1C1NC(=O)N(C)C(C)=C1C(=O)OCCOC (centres unmarked) [MLS001167424-01]	0.9904	1.428	0.8924	0.907	0.7995	0.8164	1.046	0.9596	1.365	0.7848	1.0277	0.9779	–	–	–	–	0.7491	0.9718	1.157	0.9925	–
O=Cc1ccc(C(=O)OCC(=O)N2CCCC2)cc1 [MLS001172577-01]	0.996	0.9654	1.142	1.0758	1.0212	0.9431	1.122	1.0349	1.131	1.101	1.14	0.7324	–	–	–	–	0.8944	0.862	1.029	0.9627	–
